Experimental data taken from patent publication US11169156B2, “Long wavelength voltage sensitive dyes” (The Regents of the University of California, priority 2015, dated 2021).
“Also recorded” adds a separate entry of the source.

Columns and labels:
[1] = In vitro cross excitation in aqueous buffer (emission scans with differing excitation wavelengths); format: physicochemical; conditions: emission 680 nm
Protocol: FIG. 12A-C provides for in vitro cross excitation of BeRST 1 and BR. Emission scans of (A) BeRST 1 and (B) BR in aqueous buffer (50 mM TBS, pH 7.5, 0.1% SDS) with differing excitation wavelengths. (C) Relative fluorescence emission intensity at 680 nm vs. excitation wavelength for BeRST 1 (black bars) and BR (grey bars).
Stock solutions of BR and BeRST 1 were prepared in DMSO (1.0-10 mM) and diluted with TBS (50 mM Tris-HCl, pH 7.5, 0.15 M NaCl) solution containing 0.10% (w/w) SDS (1:100 to 1:1000 dilution). UV-Vis absorbance and fluorescence spectra were recorded using a Shimadzu 2501 Spectrophotometer (Shimadzu) and a Quantamaster Master 4 L-format scanning spectrofluorometer (Photon Technologies International). The fluorometer is equipped with an LPS-220B 75-W xenon lamp and power supply, A-1010B lamp housing with integrated igniter, switchable 814 photon-counting/analog photomultiplier detection unit, and MD5020 motor driver. Samples were measured in 1-cm path length quartz cuvettes (Starna Cells). Relative quantum yields were measured in TBS solution containing 0.10% (w/w) SDS or in CH3OH and referenced to cresyl violet in CH3OH, which has a quantum yield of 0.54.

[2] = Spectroscopic studies (absorbance, emission, quantum yield) in vitro; format: physicochemical; conditions: for quantum yield (Φfl): referenced to cresyl violet; for emission maximum: aqueous buffer
[3] = in CH3OH; cited from earlier work
[4] = test system: rat hippocampal neurons; assay: Effect of dye loading on action potential firing, whole-cell patch clamp without imaging; format: cell-based; conditions: neurons with or without 1 μM dye, n=12 and 11
Protocol: To test if loading of BeRST 1 onto the membrane of neurons has any effect on their action potential firing, ten 500 ms current steps were injected into neurons, in increments of […]. The first action potential from each sweep was analyzed in Clampfit 10 software (Molecular Devices) to give amplitude and kinetic data. The cell capacitance determined by the Clampex software during recording. To evoke single action potentials for electrophysiological and imaging comparisons, short (10 ms) current injections were applied which were 2× the threshold required to evoke a single action potential. Analysis of action potentials was performed using spike detection algorithms in the Clampfit 10 software.

[5] = test system: HEK cells; assay: Voltage sensitivity in HEK cells, whole-cell voltage clamp with fluorescence imaging; format: cell-based, Human; conditions: for voltage sensitivity, fractional change in fluorescence: 680 nm emission, n=4 cells
Protocol: Functional imaging of BeRST 1 was performed using a 20× objective paired with image capture from the EMCCD camera at a sampling rate of 0.5 kHz. BeRST 1 was excited using the 633 nm LED with an intensity of 6.7 W/cm^2. For initial voltage characterization (see, FIG. 4) emission was collection with the QUAD filter and dichroic (see above). For investigation into voltage sensitivity during excitation cross-talk (see, FIG. 11) BeRST 1 was excited by a 633 nm LED as above and 390 nm light (violet LED, 20 nm bandpass) with an intensity of 3.3 W/cm^2 and emission was collected with a 680/10 nm bandpass emission filter.
(§1) Analysis of voltage sensitivity in HEK cells was performed using custom Matlab routines. Briefly, a region of interest (ROI) was selected automatically based on fluorescence intensity and applied as a mask to all image frames. Fluorescence intensity values were calculated at known baseline and voltage step epochs. For analysis of BeRST 1 voltage responses in neurons, regions of interest encompassing cell bodies were drawn in ImageJ and the mean fluorescence intensity for each frame extracted. The photostability of BeRST 1 allowed for the calculation of ΔF/F values by subtracting a mean background value from all raw fluorescence frames, bypassing the noise amplification which arises from subtracting background for each frame. All example traces were not averaged. For comparisons of action potentials recorded electrophysiologically and optically, imaging traces were analyzed using spike detection algorithms in the Clampfit 10 software (Molecular Devices). For cross-excitation quantification images were background subtracted. ROIs were made by thresholding to the 25% of the maximum pixel intensity to remove non-stained areas. Mean intensity values for stained neurons were calculated.
For whole-cell, voltage clamp recordings in HEK 293T cells were held at −60 mV and 100 ms hyper- and de-polarizing steps applied from −100 to +100 mV in 20 mV increments.

[6] = test system: rat hippocampal neurons; assay: Action potential imaging in patch-clamped (current clamp) hippocampal neurons; format: cell-based; conditions: 1.8 kHz optical sampling, n=7 cells
Protocol: Hippocampi were dissected from embryonic day 18 Sprague Dawley rats (Charles River Laboratory) in cold sterile HBSS (zero Ca^2+, zero Mg^2+). All dissection products were supplied by Invitrogen, unless otherwise stated. Hippocampal tissue was treated with trypsin (2.5%) for 15 min at 37° C. The tissue was triturated using fire polished Pasteur pipettes, in minimum essential media (MEM) supplemented with 5% fetal bovine serum (FBS; Thermo Scientific), 2% B-27, 2% 1M D-glucose (Fisher Scientific) and 1% glutamax. […]
as §1, with “All example traces were not averaged. For comparisons of action potentials recorded electrophysiologically and optically, imaging traces were analyzed using spike detection algorithms in the Clampfit 10 software (Molecular Devices).” left out, “ROIs were made by thresholding to the 25% of the maximum pixel intensity to remove non-stained areas.” left out, “calculated. […]” for “calculated.”

[7] = test system: rat hippocampal neurons; assay: Imaging of action potentials evoked by extracellular field stimulation in hippocampal neurons; format: cell-based
Protocol: Hippocampi were dissected from embryonic day 18 Sprague Dawley rats (Charles River Laboratory) in cold sterile HBSS (zero Ca^2+, zero Mg^2+). All dissection products were supplied by Invitrogen, unless otherwise stated. Hippocampal tissue was treated with trypsin (2.5%) for 15 min at 37° C. The tissue was triturated using fire polished Pasteur pipettes, in minimum essential media (MEM) supplemented with 5% fetal bovine serum (FBS; Thermo Scientific), 2% B-27, 2% 1M D-glucose (Fisher Scientific) and 1% glutamax. The dissociated cells were plated onto 12 mm diameter coverslips (Fisher Scientific) pre-treated with PDL (as above) at a density of 30,000-40,000 cells per coverslip in MEM supplemented media (as above). Neurons were maintained at 37° C. in a humidified incubator with 5% CO2. At 3 days in vitro (DIV) half of the MEM supplemented media was removed and replaced with Neurobasal media containing 2% B-27 supplement and 1% glutamax. Transfection of genetic tools was carried out using Lipofectamine 3000 at 7 DIV. Functional imaging was performed on mature neurons 13-20 DIV, except electrophysiological experiments which were performed on 12-15 DIV neurons.
Extracellular field stimulation was delivered by Grass Stimulator connected to a recording chamber containing two platinum electrodes (Warner), with triggering provided through a Digidata 1332A digitizer and pCLAMP 10 software (Molecular Devices). Action potentials were triggered by 1 ms 80 V field potentials delivered at 5 Hz. To prevent recurrent activity the HBS bath solution was supplemented with synaptic blockers 10 μM 2,3-Dioxo-6-nitro-1,2,3, 4-tetrahydrobenzo[f]quinoxaline-7-sulfonamide (NBQX; Santa Cruz Biotechnology) and 25 μM DL-2-Amino-5-phosphonopentanoic acid (APV; Sigma-Aldrich). Functional imaging of BeRST 1 was performed using the EMCCD camera and a 63× objective. BeRST 1 was excited with a 631 nm light (LED; 631 nm, 28 nm bandpass) with an intensity of 127 W/cm^2. Emission from BeRST 1 was collected with a 680/10 nm bandpass emission filter (after passing through a quadruple dichroic mirror (432/38 nm, 509/22 nm, 586/40 nm, 654 nm LP) or for GCaMP6s and ASAP experiments a QUAD filter (quadruple emission filter (430/32 nm, 508/14 nm, 586/30 nm, 708/98 nm) after passing through the quadruple dichroic mirror. Optical sampling rate of BeRST 1 imaging was 0.5-0.53 kHz, except when imaging with ASAP1 (1.25 kHz). Green spectrum genetic tools (GFP, GCaMP6s and ASAP1) were illuminated using 475 nm light (LED; 475 nm, 34 nm bandpass). For functional imaging an intensity of 33 W/cm^2 for GCaMP6s and 200 W/cm^2 for the more weakly fluorescent ASAP1 was used, which is the maximum 475 nm LED intensity for the system. Emission was collected with a 540/50 nm bandpass filter after passing through a 510 nm longpass dichroic. Functional imaging of GCaMP6s and ASAP was performed at 40 Hz and 1.25 kHz, respectively. Images showing cellular morphology were performed by switching to a lower magnification 20× objective in conjunction with either the EMCCD (GCaMP6s/ASAP1) or sCMOS (GFP) camera.
as §1, with “For comparisons of action potentials recorded electrophysiologically and optically, imaging traces were analyzed using spike detection algorithms in the Clampfit 10 software (Molecular Devices). For cross-excitation quantification images were background subtracted. ROIs were made by thresholding to the 25% of the maximum pixel intensity to remove non-stained areas. Mean intensity values for stained neurons were calculated.” left out

[8] = aqueous buffer (50 mM TBS, pH 7.5, 0.1% SDS)

In the case of `CN(C)c1ccc2c(c1)[Si](C)(C)C1=CC(=[N+](C)C)C=CC1=C2c1ccccc1S(=O)(=O)[O-]` [BR, 2-(7-(Dimethylamino)-3-(dimethyliminio)-5,5-dimethyl-3,5-dihydrodibenzo[b,e]silin-10-yl) benzenesulfonate], the “emission with 390 nm excitation, share of full emission” value [1] is reported as 16%, the “emission with 475 nm excitation compared to excitation at 630 nm” value [1] is reported as “approximately 1%” and the “quantum yield (Φfl)” value ([2]; TBS/SDS aqueous buffer) is reported as 0.24. The emission maximum [2] was 681 nm, the “absorbance / excitation centered at” value [2, 8] was 658 nm and the extinction coefficient [2, 8] was 150,000 M^−1 cm^−1. For the same molecule, the “quantum yield (Φfl)” value ([2]; methanol) was 0.32, the “change in absorbance with pH (spirocyclization)” value ([2]; pH 2.5 to 9) was “no change in absorbance” and the “absorbance vs. solvent dielectric constant (solvatochromism)” value ([2]; ε=6 (10% water/dioxane v/v) to ε=71 (90% water/dioxane v/v)) was “remains unchanged”.
For cresyl violet, the “quantum yield of reference standard” value [3] is given as 0.54.
For `COc1cc(N(C)C)ccc1/C=C/c1ccc(/C=C/c2ccc(C3=C4C=CC(=[N+](C)C)C=C4[Si](C)(C)c4cc(N(C)C)ccc43)c(S(=O)(=O)[O-])c2)cc1` [BeRST 1, 5-((E)-4-((E)-4-(Dimethylamino)-2-methoxystyryl)styryl)-2-(7-(dimethylamino)-3-(dimethyliminio)-5,5-dimethyl-3,5-dihydrodibenzo[b,e]silin-10-yl)benzenesulfonate], the “effect on action potential amplitude, duration, rise time, decay time, cellular capacitance” value [4] was “No difference; also recorded: No statistically significant differences”, the “emission with 390 nm excitation, share of full emission” value [1] was 35% and the “emission with 475 nm excitation compared to excitation at 630 nm” value [1] was ~7%. For the same molecule, the voltage sensitivity ([5]; HEK cells loaded with 1 μM dye, whole-cell voltage clamp, n=15 cells) was “approximately 24%±5%”, the “voltage sensitivity, fractional change in fluorescence” value ([5]; excited at 390 nm (3.3 W/cm^2)) was 28 % ΔF/F per 100 mV and the “voltage sensitivity, fractional change in fluorescence” value ([5]; excited at 631 nm (6.7 W/cm^2)) was 26 % ΔF/F per 100 mV. The “linearity of fluorescence response to membrane potential” value ([5]; range spanning ±100 mV) was “linear”, the “FWHM duration of action potentials, optical record” value ([6]; electrophysiological record 1.65±0.15 ms) was 1.97 ± 0.14 ms and the “optical response for action potentials” value ([6]; current clamp evoked action potentials) was “approximately 9.5 % ΔF/F”. The “change in fluorescence per action potential” value ([7]; field stimulation, GFP-expressing cells, n=5 pairs of cells) was 8.7±0.8 % ΔF/F, the “change in fluorescence per action potential” value ([7]; field stimulation, cells not expressing GFP) was “approximately 9.2 % ΔF/F” and the “optical response for action potentials” value ([7]; field stimulation, n=5 cells) was 17.8 % ΔF/F. For the same molecule, the “voltage transient for a single evoked action potential” value ([7]; neuron expressing GCaMP6s and stained with BeRST 1) was “approximately 15 % ΔF/F”, the “increase in relative fluorescence to evoked train of action potentials” value ([7]; neurons expressing ASAP1 and stained with BeRST 1, S.E.M., n=4 cells) was 15%±2.1% and the “resolution of individually evoked action potentials in trains” value ([7]; trains at 5, 10 and 20 Hz) was “visible in the BeRST 1 channel at all frequencies”. For the same molecule, the “quantum yield (Φfl)” value ([2]; TBS/SDS aqueous buffer) was 0.017, the emission maximum [2] was 683 nm and the “absorbance / excitation centered at” value [2, 8] was 658 nm. For the same molecule, the “extinction coefficient at the incident irradiation” value ([2]; at incident irradiation (631 nm BeRST 1, 475 nm VF2.1.Cl)) was 150,000 and the “quantum yield (Φfl)” value ([2]; methanol) was 0.022.
